Converted amounts (≈) assume the structure as drawn.
Columns and labels:
Type in all cases: functional
Staphylococcus aureus [1] = experiment: Ratio of norfloxacin MIC to compound MIC for methicillin-resistant Staphylococcus aureus CCARM 3506 clinical isolate
Staphylococcus aureus [2] = experiment: Antibacterial activity against Staphylococcus aureus RN4220 after 24 hrs by broth microdilution method; details: RN4220, 24 h
Staphylococcus aureus [3] = experiment: Antibacterial activity against quinolone-resistant Staphylococcus aureus CCARM 3505 clinical isolate after 24 hrs by broth microdilution method; details: CCARM 3505, 24 h
Staphylococcus aureus [4] = experiment: Ratio of norfloxacin MIC to compound MIC for quinolone-resistant Staphylococcus aureus CCARM 3505 clinical isolate
Staphylococcus aureus [5] = experiment: Antibacterial activity against Staphylococcus aureus KCTC 209 after 24 hrs by broth microdilution method; details: KCTC 209, 24 h
Escherichia coli = experiment: Antibacterial activity against Escherichia coli CCARM 1356 after 24 hrs by broth microdilution method; details: CCARM 1356, 24 h
Staphylococcus aureus [6] = experiment: Ratio of norfloxacin MIC to compound MIC for methicillin-resistant Staphylococcus aureus CCARM 3167 clinical isolate
Staphylococcus aureus [7] = experiment: Antibacterial activity against methicillin-resistant Staphylococcus aureus CCARM 3506 clinical isolate after 24 hrs by broth microdilution method; details: CCARM 3506, 24 h
Staphylococcus aureus [8] = experiment: Antibacterial activity against quinolone-resistant Staphylococcus aureus CCARM 3519 clinical isolate after 24 hrs by broth microdilution method; details: CCARM 3519, 24 h
Staphylococcus aureus [9] = experiment: Antibacterial activity against Staphylococcus aureus KCTC 503 after 24 hrs by broth microdilution method; details: KCTC 503, 24 h
Staphylococcus aureus [10] = experiment: Ratio of norfloxacin MIC to compound MIC for quinolone-resistant Staphylococcus aureus CCARM 3519 clinical isolate
Staphylococcus aureus [11] = experiment: Antibacterial activity against methicillin-resistant Staphylococcus aureus CCARM 3167 clinical isolate after 24 hrs by broth microdilution method; details: CCARM 3167, 24 h

Row | SMILES | Ratio (Staphylococcus aureus [1]) | MIC (Staphylococcus aureus [2]) | MIC (Staphylococcus aureus [3]) | Ratio (Staphylococcus aureus [4]) | MIC (Staphylococcus aureus [5]) | MIC (Escherichia coli) | Ratio (Staphylococcus aureus [6]) | MIC (Staphylococcus aureus [7]) | MIC (Staphylococcus aureus [8]) | MIC (Staphylococcus aureus [9]) | Ratio (Staphylococcus aureus [10]) | MIC (Staphylococcus aureus [11])
1 | O=C(O)[C@H](Cc1ccccc1)N1C(=O)/C(=C\c2ccc(OCc3ccc(F)cc3)cc2)SC1=S | 2 | 4 µg/mL (≈ 8.1 µM) | 8 µg/mL (≈ 16.2 µM) | 2 | 8 µg/mL (≈ 16.2 µM) | > 64 µg/mL | 2 | 8 µg/mL (≈ 16.2 µM) | 8 µg/mL (≈ 16.2 µM) | 8 µg/mL (≈ 16.2 µM) | 2 | 8 µg/mL (≈ 16.2 µM)
2 | Cc1ccc(C(=O)/C=C/c2ccc(/C=C3\SC(=S)N([C@@H](Cc4ccccc4)C(=O)O)C3=O)cc2)c(C)c1 | 2 | 4 µg/mL (≈ 7.58 µM) | 8 µg/mL (≈ 15.2 µM) | 2 | 16 µg/mL (≈ 30.3 µM) | > 64 µg/mL | 2 | 4 µg/mL (≈ 7.58 µM) | 8 µg/mL (≈ 15.2 µM) | 16 µg/mL (≈ 30.3 µM) | 2 | 4 µg/mL (≈ 7.58 µM)
3 | O=C(/C=C/c1ccc(/C=C2\SC(=S)N([C@@H](Cc3ccccc3)C(=O)O)C2=O)cc1)c1ccc2ccccc2c1 | 2 | 2 µg/mL (≈ 3.64 µM) | 2 µg/mL (≈ 3.64 µM) | 2 | 8 µg/mL (≈ 14.6 µM) | > 64 µg/mL | 2 | 4 µg/mL (≈ 7.28 µM) | 2 µg/mL (≈ 3.64 µM) | 8 µg/mL (≈ 14.6 µM) | 2 | 2 µg/mL (≈ 3.64 µM)
4 | O=C(/C=C/c1ccc(/C=C2\SC(=S)N([C@@H](Cc3ccccc3)C(=O)O)C2=O)cc1)c1ccccc1Cl | 2 | 2 µg/mL (≈ 3.74 µM) | 4 µg/mL (≈ 7.49 µM) | 2 | 16 µg/mL (≈ 30 µM) | > 64 µg/mL | 2 | 4 µg/mL (≈ 7.49 µM) | 4 µg/mL (≈ 7.49 µM) | 16 µg/mL (≈ 30 µM) | 2 | 2 µg/mL (≈ 3.74 µM)
5 | Cc1ccc(C(=O)/C=C/c2ccc(/C=C3\SC(=S)N([C@@H](Cc4ccccc4)C(=O)O)C3=O)cc2)cc1 | 2 | 2 µg/mL (≈ 3.89 µM) | 8 µg/mL (≈ 15.6 µM) | 2 | 8 µg/mL (≈ 15.6 µM) | > 64 µg/mL | 2 | 2 µg/mL (≈ 3.89 µM) | 2 µg/mL (≈ 3.89 µM) | 8 µg/mL (≈ 15.6 µM) | 2 | 2 µg/mL (≈ 3.89 µM)
6 | Cc1ccc(COc2ccc(/C=C3\SC(=S)N([C@@H](Cc4ccccc4)C(=O)O)C3=O)cc2)cc1 | 2 | 4 µg/mL (≈ 8.17 µM) | 8 µg/mL (≈ 16.3 µM) | 2 | 8 µg/mL (≈ 16.3 µM) | > 64 µg/mL | 2 | 8 µg/mL (≈ 16.3 µM) | 8 µg/mL (≈ 16.3 µM) | 16 µg/mL (≈ 32.7 µM) | 2 | 4 µg/mL (≈ 8.17 µM)
7 | O=C(/C=C/c1ccc(/C=C2\SC(=S)N([C@@H](Cc3ccccc3)C(=O)O)C2=O)cc1)c1ccc(F)cc1 | 2 | 4 µg/mL (≈ 7.73 µM) | 8 µg/mL (≈ 15.5 µM) | 2 | 16 µg/mL (≈ 30.9 µM) | > 64 µg/mL | 2 | 4 µg/mL (≈ 7.73 µM) | 8 µg/mL (≈ 15.5 µM) | 16 µg/mL (≈ 30.9 µM) | 2 | 4 µg/mL (≈ 7.73 µM)
8 | O=C(O)[C@H](Cc1ccccc1)N1C(=O)/C(=C\c2ccc(OCc3ccccc3Cl)cc2)SC1=S | 2 | 4 µg/mL (≈ 7.84 µM) | 4 µg/mL (≈ 7.84 µM) | 2 | 8 µg/mL (≈ 15.7 µM) | > 64 µg/mL | 2 | 4 µg/mL (≈ 7.84 µM) | 4 µg/mL (≈ 7.84 µM) | 8 µg/mL (≈ 15.7 µM) | 2 | 4 µg/mL (≈ 7.84 µM)
9 | O=C(O)[C@H](Cc1ccccc1)N1C(=O)/C(=C\c2ccc(OCc3ccc(Br)cc3)cc2)SC1=S | 2 | 2 µg/mL (≈ 3.61 µM) | 8 µg/mL (≈ 14.4 µM) | 2 | 8 µg/mL (≈ 14.4 µM) | > 64 µg/mL | 2 | 8 µg/mL (≈ 14.4 µM) | 8 µg/mL (≈ 14.4 µM) | 8 µg/mL (≈ 14.4 µM) | 2 | 4 µg/mL (≈ 7.21 µM)
10 | O=C(O)[C@H](Cc1ccccc1)N1C(=O)/C(=C\c2ccc(OCc3ccc(Cl)cc3Cl)cc2)SC1=S | 2 | 2 µg/mL (≈ 3.67 µM) | 8 µg/mL (≈ 14.7 µM) | 2 | 8 µg/mL (≈ 14.7 µM) | > 64 µg/mL | 2 | 16 µg/mL (≈ 29.4 µM) | 8 µg/mL (≈ 14.7 µM) | 8 µg/mL (≈ 14.7 µM) | 2 | 8 µg/mL (≈ 14.7 µM)
11 | O=C(O)[C@H](Cc1ccccc1)N1C(=O)/C(=C\c2ccc(OCc3cccc(Br)c3)cc2)SC1=S | 2 | 2 µg/mL (≈ 3.61 µM) | 4 µg/mL (≈ 7.21 µM) | 2 | 4 µg/mL (≈ 7.21 µM) | > 64 µg/mL | 2 | 4 µg/mL (≈ 7.21 µM) | 8 µg/mL (≈ 14.4 µM) | 4 µg/mL (≈ 7.21 µM) | 2 | 4 µg/mL (≈ 7.21 µM)
12 | O=Cc1ccc(/C=C/C(=O)c2ccccc2Br)cc1 |  | > 64 µg/mL | > 64 µg/mL |  | > 64 µg/mL | > 64 µg/mL |  | > 64 µg/mL | > 64 µg/mL | > 64 µg/mL |  | > 64 µg/mL
13 | COc1ccccc1C(=O)/C=C/c1ccc(C=O)cc1 |  | > 64 µg/mL | > 64 µg/mL |  | > 64 µg/mL | > 64 µg/mL |  | > 64 µg/mL | > 64 µg/mL | > 64 µg/mL |  | > 64 µg/mL
14 | Cc1ccc(C(=O)/C=C/c2ccc(C=O)cc2)c(C)c1 |  | > 64 µg/mL | > 64 µg/mL |  | > 64 µg/mL | > 64 µg/mL |  | > 64 µg/mL | > 64 µg/mL | > 64 µg/mL |  | > 64 µg/mL
15 | O=C1NC(=S)S/C1=C/c1ccc(/C=C/C(=O)c2ccc(F)cc2)cc1 |  | > 64 µg/mL | > 64 µg/mL |  | > 64 µg/mL | > 64 µg/mL |  | > 64 µg/mL | > 64 µg/mL | > 64 µg/mL |  | > 64 µg/mL
16 | O=Cc1ccc(/C=C/C(=O)c2cccc(Cl)c2)cc1 |  | > 64 µg/mL | > 64 µg/mL |  | > 64 µg/mL | > 64 µg/mL |  | > 64 µg/mL | > 64 µg/mL | > 64 µg/mL |  | > 64 µg/mL
17 | O=C1NC(=S)S/C1=C/c1ccc(/C=C/C(=O)c2ccccc2Cl)cc1 |  | > 64 µg/mL | > 64 µg/mL |  | > 64 µg/mL | > 64 µg/mL |  | > 64 µg/mL | > 64 µg/mL | > 64 µg/mL |  | > 64 µg/mL
18 | O=Cc1ccc(/C=C/C(=O)c2cccc(Br)c2)cc1 |  | > 64 µg/mL | > 64 µg/mL |  | > 64 µg/mL | > 64 µg/mL |  | > 64 µg/mL | > 64 µg/mL | > 64 µg/mL |  | > 64 µg/mL
19 | O=Cc1ccc(/C=C/C(=O)c2ccc(F)cc2)cc1 |  | > 64 µg/mL | > 64 µg/mL |  | > 64 µg/mL | > 64 µg/mL |  | > 64 µg/mL | > 64 µg/mL | > 64 µg/mL |  | > 64 µg/mL

Source: ChEMBL document CHEMBL2086385, “Synthesis and antimicrobial evaluation of L-phenylalanine-derived C5-substituted rhodanine and chalcone derivatives containing thiobarbituric acid or 2-thioxo-4-thiazolidinone” (2012)
